Measured values published in PubChem BioAssay AID248 (DTP/NCI, 2004).
Values joined by “and” are separate entries in the source; they are usually repeats but may differ in a detail not shown here. Equal entries are not always repeated. Inconclusive results and toxic doses are left out.

Tested on: L1210 leukemia ip in BDF1 mice, survival T/C
Experiment: NCI In Vivo Anticancer Drug Screen. Data for tumor model L1210 Leukemia (intraperitoneal) in B6D2F1 (BDF1) mice
Settings: endpoint: mean survival time, higher = longer survival
In short: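 Mice bearing the transplanted tumor received compound or vehicle. Survival of the treated group was divided by that of the vehicle-treated control group to give the ratio.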

[1] = dose: 0.5 mg/kg/injection, schedule: Q01DX009 (ip), vehicle: saline
[2] = dose: 1.0 mg/kg/injection, schedule: Q01DX009 (ip), vehicle: saline
[3] = dose: 2.0 mg/kg/injection, schedule: Q01DX009 (ip), vehicle: saline
[4] = dose: 100.0 mg/kg/injection, schedule: Q04DX003 (ip), vehicle: saline
[5] = dose: 100.0 mg/kg/injection, schedule: Q01DX001 (ip), vehicle: other
[6] = dose: 200.0 mg/kg/injection, schedule: Q01DX001 (ip), vehicle: other
[7] = dose: 400.0 mg/kg/injection, schedule: Q01DX001 (ip), vehicle: other
[8] = dose: 10.0 mg/kg/injection, schedule: Q01DX001 (ip), vehicle: saline
[9] = dose: 20.0 mg/kg/injection, schedule: Q01DX001 (ip), vehicle: saline
[10] = dose: 100.0 mg/kg/injection, schedule: Q01DX001 (ip), vehicle: saline
[11] = dose: 200.0 mg/kg/injection, schedule: Q01DX001 (ip), vehicle: saline
[12] = dose: 400.0 mg/kg/injection, schedule: Q01DX001 (ip), vehicle: saline
[13] = dose: 100.0 mg/kg/injection, schedule: Q01DX009 (ip), vehicle: Klucel (hydroxypropylcellulose) (HPC)
[14] = dose: 100.0 mg/kg/injection, schedule: Q01DX001 (ip), vehicle: carboxymethylcellulose (CMC)
[15] = dose: 200.0 mg/kg/injection, schedule: Q01DX001 (ip), vehicle: carboxymethylcellulose (CMC)
[16] = dose: 400.0 mg/kg/injection, schedule: Q01DX001 (ip), vehicle: carboxymethylcellulose (CMC)
[17] = dose: 100.0 mg/kg/injection, schedule: Q04DX003 (ip), vehicle: saline with Tween-80
[18] = dose: 200.0 mg/kg/injection, schedule: Q01DX009 (ip), vehicle: Klucel (hydroxypropylcellulose) (HPC)
[19] = dose: 400.0 mg/kg/injection, schedule: Q01DX009 (ip), vehicle: Klucel (hydroxypropylcellulose) (HPC)
[20] = dose: 100.0 mg/kg/injection, schedule: Q01DX009 (ip), vehicle: saline with Tween-80
[21] = dose: 200.0 mg/kg/injection, schedule: Q01DX009 (ip), vehicle: saline with Tween-80
[22] = dose: 200.0 mg/kg/injection, schedule: Q04DX003 (ip), vehicle: saline with Tween-80
[23] = dose: 400.0 mg/kg/injection, schedule: Q01DX009 (ip), vehicle: saline with Tween-80
[24] = dose: 400.0 mg/kg/injection, schedule: Q04DX003 (ip), vehicle: saline with Tween-80
[25] = dose: 100.0 mg/kg/injection, schedule: Q01DX001 (ip), vehicle: Klucel (hydroxypropylcellulose) (HPC)
[26] = dose: 200.0 mg/kg/injection, schedule: Q01DX001 (ip), vehicle: Klucel (hydroxypropylcellulose) (HPC)
[27] = dose: 400.0 mg/kg/injection, schedule: Q01DX001 (ip), vehicle: Klucel (hydroxypropylcellulose) (HPC)
[28] = dose: 75.0 mg/kg/injection, schedule: Q01DX001 (ip), vehicle: carboxymethylcellulose (CMC)

CC[CH2][Sn]([CH2]CC)([CH2]CC)[O][Sn]([CH2]CC)([CH2]CC)[CH2]CC
T/C [1]: 95 % of control
T/C [2]: 100 % of control
T/C (dose: 1.0 mg/kg/injection, schedule: Q04DX003 (ip), vehicle: saline with Tween-80): 97 % of control
T/C [3]: 93 % of control
T/C (dose: 2.0 mg/kg/injection, schedule: Q04DX003 (ip), vehicle: saline with Tween-80): 90 % of control

CC[N+](C)(CC)CCOc1cc(C)ccc1C(C)C
T/C (dose: 25.0 mg/kg/injection, schedule: Q04DX003 (ip), vehicle: saline): 104 % of control
T/C (dose: 50.0 mg/kg/injection, schedule: Q04DX003 (ip), vehicle: saline): 98 % of control
T/C [4]: 93 % of control and 98 % of control

Nc1ccc(N=Nc2cc(Cl)ccc2Cl)c(N)n1
T/C (dose: 50.0 mg/kg/injection, schedule: Q01DX001 (ip), vehicle: other): 103 % of control
T/C [5]: 86 % of control
T/C [6]: 92 % of control
T/C [7]: 92 % of control

NC(=S)N/N=C\c1ncnc2nc[nH]c12
T/C (dose: 0.5 mg/kg/injection, schedule: Q03HX024 (ip), vehicle: saline): 111 % of control
T/C (dose: 1.0 mg/kg/injection, schedule: Q03HX024 (ip), vehicle: saline): 121 % of control
T/C (dose: 5.0 mg/kg/injection, schedule: Q01DX001 (ip), vehicle: saline): 114 % of control
T/C (dose: 8.0 mg/kg/injection, schedule: Q03HX024 (ip), vehicle: saline): 150 % of control
T/C [8]: 118 % of control
T/C [9]: 114 % of control

COc1ccc(/C=N/NC(=S)Nc2cccc3cccnc23)cc1OC
T/C [10]: 100 % of control
T/C [11]: 94 % of control
T/C [12]: 86 % of control

COc1ccc(Cl)cc1CCCO
T/C (dose: 50.0 mg/kg/injection, schedule: Q01DX001 (ip), vehicle: saline): 100 % of control
T/C [10]: 100 % of control
T/C [11]: 92 % of control
T/C [12]: 119 % of control

COc1c(Cl)c(C(Cl)(Cl)Cl)nc2ccccc12
T/C (dose: 50.0 mg/kg/injection, schedule: Q01DX009 (ip), vehicle: Klucel (hydroxypropylcellulose) (HPC)): 101 % of control
T/C [13]: 104 % of control

C1=C(c2ccccc2)c2c(c3ccccc3c3ccccc23)C(c2ccccc2)=CC1
T/C (dose: 50.0 mg/kg/injection, schedule: Q01DX001 (ip), vehicle: carboxymethylcellulose (CMC)): 100 % of control
T/C [14]: 100 % of control
T/C [15]: 94 % of control
T/C [16]: 94 % of control

C1=C[N]2c3c4c(ccc3=C1)=CC=C[N]4[Ga]2[c]1ccccc1
T/C (dose: 25.0 mg/kg/injection, schedule: Q04DX003 (ip), vehicle: saline with Tween-80): 88 % of control
T/C (dose: 50.0 mg/kg/injection, schedule: Q04DX003 (ip), vehicle: saline with Tween-80): 97 % of control
T/C [17]: 101 % of control

O=C(O)COc1ccc(/C=C/c2ccnc3ccccc23)cc1
T/C [13]: 94 % of control
T/C [18]: 99 % of control
T/C [19]: 86 % of control

Cc1ccc(S(=O)(=O)N/N=C/C=C\C=N\NS(=O)(=O)c2ccc(C)cc2)cc1
T/C [13]: 98 % of control
T/C [18]: 96 % of control
T/C [19]: 90 % of control

N#Cc1ccc2c(c1)Cc1cc([N+](=O)[O-])ccc1-2
T/C [14]: 100 % of control
T/C [15]: 105 % of control
T/C [16]: 91 % of control

CC(=O)OCc1cc2ccccc2nc1C
T/C [20]: 110 % of control
T/C [17]: 102 % of control
T/C [21]: 104 % of control
T/C [22]: 96 % of control
T/C [23]: 98 % of control
T/C [24]: 96 % of control

CCC(C)C(C(=O)OC1CCN(CC)CC1)c1ccccc1 (centres undefined)
T/C [4]: 94 % of control

Oc1cccc(N=Cc2ccccc2O)c1
T/C [25]: 102 % of control
T/C [10]: 97 % of control
T/C [26]: 96 % of control
T/C [11]: 100 % of control
T/C [27]: 101 % of control
T/C [12]: 105 % of control

Cc1ccc(C(=O)C(c2ccccc2)C(Cl)c2ccccc2)cc1 (centres undefined)
T/C [13]: 98 % of control
T/C (dose: 100.0 mg/kg/injection, schedule: Q04DX003 (ip), vehicle: Klucel (hydroxypropylcellulose) (HPC)): 92 % of control
T/C [18]: 104 % of control
T/C (dose: 200.0 mg/kg/injection, schedule: Q04DX003 (ip), vehicle: Klucel (hydroxypropylcellulose) (HPC)): 98 % of control
T/C [19]: 92 % of control
T/C (dose: 400.0 mg/kg/injection, schedule: Q04DX003 (ip), vehicle: Klucel (hydroxypropylcellulose) (HPC)): 102 % of control

OCCC#CCCCO
T/C (dose: 100.0 mg/kg/injection, schedule: Q01DX009 (ip), vehicle: saline): 93 % of control
T/C (dose: 200.0 mg/kg/injection, schedule: Q01DX009 (ip), vehicle: saline): 92 % of control
T/C (dose: 400.0 mg/kg/injection, schedule: Q01DX009 (ip), vehicle: saline): 88 % of control

CC(C)NCCNc1ccnc2cc(Cl)ccc12
T/C [8]: 94 % of control
T/C [9]: 98 % of control
T/C (dose: 40.0 mg/kg/injection, schedule: Q01DX001 (ip), vehicle: saline): 96 % of control

O=C1C=CC(=O)C=C1
T/C [1]: 97 % of control
T/C [2]: 97 % of control
T/C [3]: 94 % of control
T/C (dose: 4.0 mg/kg/injection, schedule: Q01DX009 (ip), vehicle: saline): 94 % of control

CCCCCCCCOc1ccc(C=Nc2ccc(C(=O)OCC)cc2)cc1
T/C [13]: 87 % of control
T/C [18]: 92 % of control
T/C [19]: 94 % of control

C=CCNc1ccc(OC)cc1
T/C (dose: 50.0 mg/kg/injection, schedule: Q01DX009 (ip), vehicle: saline with Tween-80): 88 % of control
T/C [20]: 96 % of control
T/C [21]: 98 % of control

CCOC(=O)CN(CC(=O)OCC)CC(O)C(Cl)(Cl)Cl (centres undefined)
T/C [20]: 106 % of control
T/C [17]: 96 % of control
T/C [21]: 93 % of control
T/C [22]: 101 % of control
T/C [23]: 104 % of control
T/C [24]: 98 % of control

O=C(c1ccccc1)N(CCCl)C(=O)N(CCCl)C(=O)c1ccccc1
T/C [28]: 104 % of control
T/C (dose: 75.0 mg/kg/injection, schedule: Q01DX009 (ip), vehicle: saline with Tween-80): 95 % of control
T/C (dose: 75.0 mg/kg/injection, schedule: Q04DX003 (ip), vehicle: saline with Tween-80): 91 % of control
T/C (dose: 150.0 mg/kg/injection, schedule: Q01DX001 (ip), vehicle: carboxymethylcellulose (CMC)): 101 % of control
T/C (dose: 150.0 mg/kg/injection, schedule: Q01DX009 (ip), vehicle: saline with Tween-80): 98 % of control
T/C (dose: 150.0 mg/kg/injection, schedule: Q04DX003 (ip), vehicle: saline with Tween-80): 92 % of control
T/C (dose: 300.0 mg/kg/injection, schedule: Q01DX001 (ip), vehicle: carboxymethylcellulose (CMC)): 103 % of control
T/C (dose: 300.0 mg/kg/injection, schedule: Q04DX003 (ip), vehicle: saline with Tween-80): 89 % of control

CC(=O)OCC1OC(n2nnc(CBr)c2CBr)C(OC(C)=O)C(OC(C)=O)C1OC(C)=O (centres undefined)
T/C (dose: 12.5 mg/kg/injection, schedule: Q01DX005 (ip), vehicle: other): 94 % of control
T/C (dose: 25.0 mg/kg/injection, schedule: Q01DX005 (ip), vehicle: other): 102 % of control
T/C (dose: 50.0 mg/kg/injection, schedule: Q01DX005 (ip), vehicle: other): 97 % of control

CCOC(=O)Cc1cc(=O)c2ccc(Cl)cc2[nH]1
T/C [5]: 92 % of control
T/C [6]: 97 % of control
T/C [7]: 92 % of control

CCOC(=O)Nc1cc(N(C)CC(O)CN(C)c2ccccc2)c(N)c(N)n1 (centres undefined)
T/C [25]: 106 % of control
T/C [26]: 107 % of control
T/C [27]: 105 % of control

CCOC(=O)C(NNc1ccccc1)C(c1ccccc1)[P+](c1ccccc1)(c1ccccc1)c1ccccc1 (centres undefined)
T/C [28]: 101 % of control

CN(C(=O)NCCCl)C1CCC(C(=O)O)CC1 (centres undefined)
T/C [25]: 92 % of control
T/C [26]: 88 % of control
